Series [1] deals with anti-fullerene antibodies. As to the kind of experiment: ELISA inhibition of antibody binding to 1-RSA. Details: species or system mice. To be noted: for reactivity with polyclonal antibodies raised to C60: method not stated at the place; for inhibition of antibody binding to 1-RSA (ELISA inhibition): serum of mice immunized with 1-TG, plates coated with 1-RSA. Here is the method: After a total of three immunizations at 3-week intervals, confirmation of an immune response was determined by direct ELISA in which polystyrene plates (Corning) were coated with the 1-RSA conjugate (0.5 mg/ml in 0.1 M NaHCO3, pH 9), and binding of preimmune and immune sera were determined by standard procedures. Development was with horseradish peroxidase-labeled goat anti-mouse IgG (Sigma), which tested negative for crossreaction with an IgM preparation. The substrate used was o-phenylenediamine.
(§1) Specificity of the response was determined by two procedures: double diffusion in agar (22) and competitive inhibition, as determined by ELISA using RSA and BSA conjugates of the fullerenes, as well as the oligo lysine derivatives. The fullerenes themselves were not soluble enough in aqueous solutions.
The adenosine conjugate had been synthesized using the same strategy used for the fullerenes, i.e., linkage to the epsilon amino groups of the lysines via an N-hydroxysuccinimide ester derivative.
After a total of 3 immunizations at 3 week intervals, confirmation of an immune response was determined by direct ELISA in which polystyrene plates (Corning) were coated with 1-RSA conjugate (0.5 mg/ml in O.1 N NaHCO3, pH 9) and binding of preimmune and immune sera determined by standard procedures. Development was with horseradish peroxide-labeled goat anti-mouse IgG (Sigma, St. Louis, MO) which tested negative for cross reaction with an IgM preparation. The substrate used was o-phenylenediamine.
(§2) Specificity of the response was determined by two procedures: double diffusion in agar and competitive inhibition, as determined by ELISA using RSA and BSA conjugates of the fullerenes, as well as the oligo lysine derivatives. The fullerenes themselves were not soluble enough in aqueous solutions.
In general terms: In an ELISA, binding on a coated surface is turned into a signal by an enzyme label.

The conditions of series [2]: acute and subchronic topical applications; cited from earlier work.
Series [3] is described as follows: Gamma-camera imaging biodistribution study. Format: in vivo, Sprague-Dawley rats. The procedure: The biodistribution in mice of hydroxylated lanthanide-C82 encapsulates is under current investigation. The results presented here are regarded as preliminary as the sample is still small. Studies continue under a NIH Phase I grant. The neutron irradiated samples, along with a […] control sample, were used to perform a γ-camera imaging study on four 300 g Sprague-Dawley rats. Two rats were injected intraperitoneally (IP) with 54 and 18 μCi of ^166Ho activity from samples containing irradiated Ho-metallofullerois. Two control studies were performed by […] of approximately 660 μCi of ^166Ho^3+ in a 1% sodium citrate buffer. The anesthetized rats were scanned side-by-side on a single stage with a γ-camera starting 1 hour after injection and periodically thereafter over the ensuing 48 hours.

Series [4] has as its system anti-fullerene antibodies. As to the kind of experiment: Double diffusion in agar. Type of series: binding, mice. The procedure:
as §1, §2

Turning to `c12c3c4c5c1c1c6c7c2c2c8c3c3c9c4c4c%10c5c5c1c1c6c6c%11c%12c%13c%14c%15c%16c%17c%14c%14c%18c%13c%11c1c1c5c%10c5c(c%14c%10c%17c%11c%13c%16c%14c%16c%15c%12c%12c%16c(c2c7c%126)c2c8c3c(c%13c%142)c2c9c4c5c%10c%112)c%181` [Compound C70], the “reactivity with polyclonal antibodies raised to C60” value was “non-reactive” in series [1] and “crossreacted” in series [1] (listed as C70 fullerene). Moreover, in series [2], the carcinogenic effects result is given as “lack of carcinogenic effects”.

Consider `[166Ho+3]` [^166Ho^3−], for which, in series [3] (IP, commencing as soon as 1 hour post-injection), the urinary clearance entry is “rapid”. Besides, the “^166Ho activity excreted” value in series [3] (after 24 hours) is reported as “essentially all”.

As to RSA: rabbit serum albumin, control, the “inhibition of antibody binding to 1-RSA (ELISA inhibition)” value in series [1] is listed as “No inhibition”.

“TG: unsubstituted bovine thyroglobulin, carrier protein”: the “inhibition of antibody binding to 1-RSA (ELISA inhibition)” value in series [1] is reported as “No inhibition”. In addition, the results for the “precipitation in double diffusion in agar” value in series [4] (TG solution diluted 5-fold) and in series [4] (serum of mice immunized with 1-TG) were “a line of precipitation was seen” and “no visible precipitate”, respectively.
